# Data reported in paper PMC13095444, “Discovery of RGS2-FBXO44 interaction inhibitors using a cell-based NanoBit assay” (Molecular Pharmacology, 2025).
# Legend:
# [1] = test system: RGS2 protein levels; assay: PathHunter ProLabel assay of RGS2 protein levels in HEK-293T-RGS2-PL cells; format: cell-based, Human; conditions: 100 μM compound overnight (16–18 hours)
# Method: The PathHunter ProLabel assay was run as described previously ([Sjögren et al, 2012]; [Raveh et al, 2014]; [Sjögren et al, 2015]). Briefly, HEK-293T-RGS2-PL cells were plated at 10,000 cells per well in a white, tissue culture-treated 384-well plate (Perkin Elmer) in DMEM without phenol red (#21063; Gibco) and 0.1% BSA. The cells were allowed to attach for 4 hours, followed by treatment with DMSO, 10 μM MG-132, or 100 μM of compounds. Prior to the detection of RGS2 protein levels by the ProLabel assay, a fluorescent viability assay was performed in the same well, as described above. PathHunter ProLabel reagents (DiscoveRx) were prepared according to the manufacturer’s directions and added to the plate, followed by incubation at room temperature for 1 hour. Luminescence corresponding to RGS2-PL protein levels was detected using a Synergy Neo2 multimode plate reader.
# Compounds that inhibit the interaction between RGS2 and FBXO44 would protect RGS2 from proteasomal degradation and result in increased RGS2 protein levels. We therefore next assayed our 20 hits for their ability to increase RGS2 protein levels. We first performed western blot analysis of HEK-293T cells transfected with RGS2-HA and FLAG-FBXO44 and treated overnight (16–18 hours) with 100 μM compound, using proteasome inhibitor MG-132 as a positive control (10 μM). […] Although somewhat disappointing, given the limited sensitivity of western blot, we opted to also test the compounds using an alternate assay paradigm. Specifically, we used the PathHunter ProLabel assay (DiscoveRx), an enzyme complementation assay in which a protein of interest is tagged with a 4 kDa part of β-galactosidase (ProLabel; PL). The chemiluminescent signal in the assay correlates with relative levels of the PL-tagged target protein. We previously developed a stable HEK-293T-RGS2-PL cell line that was used in several high-throughput screening campaigns ([Sjögren et al, 2012]; [Raveh et al, 2014]; [Sjögren et al, 2015]). The PathHunter ProLabel assay offers a more quantitative measurement of protein levels, with a larger dynamic range than a western blot. We treated HEK-293T-RGS2-PL cells overnight (16–18 hours) with 100 μM compound and used 10 μM MG-132 as a positive control.
# As a further validation of the action of compound 10, we assessed whether the ability to increase RGS2 protein levels was dependent on FBXO44 using the PathHunter ProLabel assay. HEK-293T-RGS2-PL cells transfected with either nontargeting (NT) or FBXO44-targeting siRNA were treated overnight (16–18 hours) with vehicle or compound 10 (100 μM). […] Thus, compound 10 increases RGS2 protein levels through a mechanism that is dependent on FBXO44.
# [2] = test system: HEK-293T-RGS2-FBXO44 NanoBit cells; assay: Cell viability assay (GF-AFC fluorescence) multiplexed with NanoBit; format: cell-based, Human; conditions: for Cell toxicity (in words) / Viability (% of Control): 100 μM; for Viability (% of Control): 16–18 hours
# Method: The cells were plated in DMEM without phenol red (Gibco, #21063), 0.1% BSA in a white, tissue culture-treated 384-well plate (Perkin Elmer) at 15,000 cells/well, unless indicated otherwise, and allowed to attach. The plate was centrifuged at 212 × g for 30 seconds to aid in even cell adherence. Compound treatments were initiated 4–5 hours after plating. Following indicated treatment times, media was removed from the plate using BioTek ELx405 plate washer. Additionally, 10 μL of Hank’s Balanced Salt solution (HBSS) with 0.1% BSA was added to each well, followed by 5 μL of glycyl-phenylalanyl-aminofluorocoumarin (GF-AFC; MP Biomedicals) diluted 1:1000 in 100 mM HEPES. Plates were then centrifuged at 212 × g for 30 seconds and then incubated at 37 °C for 30 minutes. Fluorescence was detected on a Synergy Neo2 multimode plate reader (BioTek/Agilent).
# Our primary assay using the HEK-293T RGS2-FBXO44 NanoBit cell line was extensively optimized to ensure maximum quality for screening. Coupling a fluorescent cell viability assay with our screen would allow us to rule out cytotoxic compounds while also hopefully reducing outliers from pipetting errors while plating cells. Thus, we multiplexed our NanoBit assay with cell viability using a cell-permeable fluorogenic protease substrate (glycyl-phenylalanyl-aminofluorocoumarin; GF-AFC; [Niles et al, 2007]), which can be combined with a luminescent readout without interfering with the luciferase signal. We previously utilized a similar multiplexing strategy in several screens ([Sjögren et al, 2012]; [Raveh et al, 2014]; [Sjögren et al, 2015]). We assessed and optimized treatment conditions (time, temperature, and reagent volume), cell density, buffer composition, and DMSO tolerance. In addition to the supplied proprietary LCS buffer (Promega), we also tested DMEM, 0.1% BSA, PBS, and HBSS (Supplemental Fig. 1A–C). […] The luminescent signal was stable up to 45 minutes after reagent addition, and we chose to run subsequent assays using 20 minutes of incubation time (Supplemental Fig. 1E). We also observed no effect on either viability or luminescence signal at DMSO concentrations <1% (Data not shown).
# (§1) HEK-293T-RGS2-FBXO44 NanoBit cells were treated for 16–18 hours with compound at 100 μM. This relatively high concentration was chosen because of the challenging nature of our assay (intracellular PPI inhibition). Parental HEK-293T cells were used as a negative control. […] Based on these criteria, 97 compounds were identified as hits from our primary screen (6.1% initial hit rate). To confirm hits, the same assay was repeated in triplicate, which delivered 34 compounds that reached the threshold for inhibition in at least 2 replicates with <25% cell toxicity (Fig. 2C; Supplemental Table 1), thus rendering a final hit rate of 2.1%.
# [3] = target: T1, RGS2-FBXO44 interaction (Homo sapiens, UniProt P41220); assay: RGS2-FBXO44 NanoBit assay (HEK-293T RGS2-SmBiT/LgBiT-FBXO44 stable clone #6); format: cell-based; conditions: for % Inhibition @ 100 μM of RGS2-FBXO44 NanoBit signal: 16–18 hours, fresh powder, luminescence normalized to viability, vs nontreated cells; for IC50: concentrations 500 to 0.01 μM, RLU normalized to viability (RFU), read-out: IC50 (μM), inhibition of RGS2-FBXO44 NanoBit signal
# T1 construct: expressed in transfected cells
# T1 sequence (P41220 1-211): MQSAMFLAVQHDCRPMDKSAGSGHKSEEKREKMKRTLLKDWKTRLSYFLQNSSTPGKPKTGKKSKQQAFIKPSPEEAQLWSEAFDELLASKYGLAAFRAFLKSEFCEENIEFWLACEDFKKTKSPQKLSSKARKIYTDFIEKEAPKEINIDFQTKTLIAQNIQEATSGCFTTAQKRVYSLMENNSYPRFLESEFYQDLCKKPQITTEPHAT
# Method: Nano-Glo Live Cell Substrate (LCS) was diluted 1:50 in HBSS to form a 2× stock, and then, 15 μL was added to each well. Plates were shaken on an orbital shaker at 500 rpm for 5 minutes protected from light and then spun down at 1000 rpm for 30 seconds. Plates were incubated at room temperature for 20 minutes, and then, luminescence was detected on a Synergy Neo2 multimode plate reader.
# as §1
# Fresh powders of 20 compounds were purchased and reassayed for their ability to inhibit the RGS2-FBXO44 NanoBit signal, using the same assay paradigm as in the primary screen (Fig. 3; Table 1). […] Nevertheless, all compounds were confirmed to inhibit the RGS2-FBXO44 NanoBit signal at this high concentration.
# We next assessed the concentration-dependent effect of our 20 hits. Compounds were assayed at concentrations ranging from 500 to 0.01 μM. NanoBit luminescence (relative luminescence units) was normalized to viability (RFU) and presented as a percentage of untreated cells.
SMILES,RGS2 protein levels (PathHunter ProLabel) [1],Cell toxicity (in words) [2],Viability (% of Control) ([2]; fresh powder),% Inhibition @ 100 μM of RGS2-FBXO44 NanoBit signal [3],IC50 [3],Cell toxicity at 100 μM ([2]; fresh powder)
Cc1cccc(C(=O)N2CCN(c3nc(C)cc(N4CCCCC4)n3)CC2)c1 [Compound 1],significantly increased RGS2 protein levels,significant toxicity,45.8∗∗∗∗ % of Control,48.9∗∗∗∗ %,58 µM,–
Cc1nc(N2CCN(C(=O)c3cccc(N(C)C)c3)CC2)cc(C(F)(F)F)n1 [Compound 2],–,–,101.9 % of Control,68.0∗∗∗∗ %,72.2 µM,–
Cc1cc(N2CCCC2)nc(N2CCN(C(=O)c3ccccc3C)CC2)n1 [Compound 3],–,–,54.1∗∗∗∗ % of Control,40.6∗∗∗∗ %,78.9 µM,–
CCOc1ccc(C(=O)NCc2ccnc(N3CCCCC3)n2)cc1 [Compound 4],–,–,89.5 % of Control,47.2∗∗∗∗ %,38.2 µM,–
CCOc1ccc(C(=O)Nc2ccc3c(c2)N(C(=O)C(C)C)CCC3)cc1OCC [Compound 5],–,–,120.5 % of Control,44.5∗∗∗∗ %,151 µM,–
CCOc1ccc(S(=O)(=O)N(Cc2cccn2C)C2CC2)cc1F [Compound 6],–,–,116.6 % of Control,36.8∗∗∗∗ %,25.6 µM,–
Cc1cc(C)c(C)c(S(=O)(=O)N2CCCC2)c1C [Compound 7],–,–,91.7 % of Control,56.5∗∗∗∗ %,42.1 µM,–
CCOc1ccc(S(=O)(=O)N2CCCCCC2)cc1C [Compound 8],–,–,80.6∗∗∗∗ % of Control,86.1∗∗∗∗ %,9.2 µM,–
O=S(=O)(C1CC1)N1CCCCC(c2ccc(Cl)cc2)C1 (centres unmarked) [Compound 9],–,–,103.6 % of Control,74.5∗∗∗∗ %,9.7 µM,–
CCOc1cc(C)c(C)cc1S(=O)(=O)N1CCN(c2ccccc2)CC1 [Compound 11],–,–,139.6 % of Control,49.6∗∗∗∗ %,29 µM,–
O=C(NCC1(O)CCOc2ccccc21)C1(c2ccc(Cl)cc2)CCCC1 (centres unmarked) [Compound 12],–,–,116.6 % of Control,32.6∗∗∗∗ %,5.8 µM,–
O=C(N(CCc1ccccc1)Cc1ccccn1)C12CC3CC(CC(C3)C1)C2 [Compound 13],–,almost complete cell toxicity,7.5∗∗∗∗ % of Control,–,–,< 90%
COC1(CNC(=O)CCc2ccccc2)C2CC3CC(C2)CC1C3 (centres unmarked) [Compound 14],–,–,93.9 % of Control,70.7∗∗∗∗ %,67.4 µM,–
Cc1cc(C)c(C)c(Cn2c(CCNC(=O)CCC(C)O)nc3ccccc32)c1C (centres unmarked) [Compound 15],–,–,68.5∗∗∗∗ % of Control,50.2∗∗∗∗ %,20.3 µM,–
CCCCNC(=O)c1nnn(-c2ccccc2)c1C(C)C [Compound 16],–,–,93.7 % of Control,75.8∗∗∗∗ %,54.8 µM,–
CSc1ccccc1C(=O)NCc1cc(C2CC2)n(C2CCCC2)n1 [Compound 17],–,–,69.2∗∗∗∗ % of Control,69.0∗∗∗∗ %,88.1 µM,–
O=C(Cc1ccccc1Cl)N(CCc1cccs1)C1CCOCC1 [Compound 18],–,–,81.5∗∗∗∗ % of Control,51.2∗∗∗∗ %,122 µM,–
CCCOc1cc(S(=O)(=O)NCC2CCCO2)ccc1Cl (centres unmarked) [Compound 19],–,–,85.8∗∗ % of Control,74.8∗∗∗∗ %,39.6 µM,–
CCc1nc(C)cn1S(=O)(=O)c1cc(OC)c(C)cc1C [Compound 20],–,–,44.4∗∗∗∗ % of Control,67.3∗∗∗∗ %,4.4 µM,–
